# Where a SMILES comes first, the peptide text is derived from it. Bridges are numbered along the chain shown (N, C = ends).
# Experiments:
# h[α6Q14R/α3]β4 [1] = format: cell-based, human
# h[α6Q14R/α3]β4 [2] = target: T1, h[α6Q14R/α3]β4 (Homo sapiens, UniProt P30926+P32297+Q15825, Q47R); format: cell-based
# T1 construct: formed by splicing the N-terminal extracellular domain of the α6 subunit with the α3 subunit; human nAChR α3 subunit (CHRNA3); expressed in transfected cells; host or cells: Xenopus laevis oocytes injected with cRNA (plasmids from the University of Utah)
# h[α6K61R/α3]β4 = target: T2, h[α6K61R/α3]β4 (Homo sapiens, UniProt P30926+P32297+Q15825, K94R); assay: cell-based
# T2 construct: formed by splicing the N-terminal extracellular domain of the α6 subunit with the α3 subunit; human nAChR α3 subunit (CHRNA3); expressed in transfected cells; host or cells: Xenopus laevis oocytes injected with cRNA (plasmids from the University of Utah)
# h[α6R3Q/α3]β4 = target: T3, h[α6R3Q/α3]β4 (Homo sapiens, UniProt P30926+P32297+Q15825, R36Q); format: cell-based
# T3 construct: formed by splicing the N-terminal extracellular domain of the α6 subunit with the α3 subunit; human nAChR α3 subunit (CHRNA3); expressed in transfected cells; host or cells: Xenopus laevis oocytes injected with cRNA (plasmids from the University of Utah)
# h[α6M112V/α3]β4 = target: T4, h[α6M112V/α3]β4 (Homo sapiens, UniProt P30926+P32297+Q15825, M145V); format: cell-based
# T4 construct: formed by splicing the N-terminal extracellular domain of the α6 subunit with the α3 subunit; fusion partner: remainder of the human α3 subunit (CHRNA3); expressed in transfected cells; host or cells: Xenopus laevis oocytes injected with cRNA
# hα6/α3β4I84V = target: T5, hα6/α3β4I84V (Homo sapiens, UniProt P30926+Q15825, I110V); format: cell-based
# T5 construct: splicing the N-terminal extracellular domain of the α6 subunit with the α3 subunit; mutant made by PCR mutagenesis; host or cells: Xenopus laevis oocytes injected with cRNA
# hα6/α3β4 = target: T6, hα6/α3β4 (Homo sapiens, UniProt P30926+P32297+Q15825); assay: cell-based; format: cell-based
# T6 construct: splicing the N-terminal extracellular domain of the α6 subunit with the α3 subunit; host or cells: Xenopus laevis oocytes injected with cRNA (1:1)
# hα6/α3β4L107V = target: T7, hα6/α3β4L107V (Homo sapiens, UniProt P30926+Q15825, L133V); assay: cell-based
# T7 construct: splicing the N-terminal extracellular domain of the α6 subunit with the α3 subunit; mutant made by PCR mutagenesis; host or cells: Xenopus laevis oocytes injected with cRNA
# h[α6S10A/α3]β4 [3] = format: cell-based, human
# h[α6S10A/α3]β4 [4] = target: T8, h[α6S10A/α3]β4 (Homo sapiens, UniProt P30926+P32297+Q15825, S43A); format: cell-based
# T8 construct: formed by splicing the N-terminal extracellular domain of the α6 subunit with the α3 subunit; human nAChR α3 subunit (CHRNA3); expressed in transfected cells; host or cells: Xenopus laevis oocytes injected with cRNA (plasmids from the University of Utah)
# [5] = target: T9, h[α6V32L, K61R/α3]β4L107V,V115I (Homo sapiens, UniProt P30926+P32297+Q15825, K94R/L133V/V141I/V65L); assay: cell-based
# T9 construct: formed by splicing the N-terminal extracellular domain of the α6 subunit with the α3 subunit; fusion partner: remainder of the human α3 subunit (CHRNA3); expressed in transfected cells; host or cells: Xenopus laevis oocytes injected with cRNA
# h[α6K7T/α3]β4 = target: T10, h[α6K7T/α3]β4 (Homo sapiens, UniProt P30926+P32297+Q15825, K40T); format: cell-based
# T10 construct: formed by splicing the N-terminal extracellular domain of the α6 subunit with the α3 subunit; human nAChR α3 subunit (CHRNA3); expressed in transfected cells; host or cells: Xenopus laevis oocytes injected with cRNA (plasmids from the University of Utah)
# rα6/α3β4 = target: T11, rα6/α3β4 (Rattus norvegicus, UniProt P04757+P12392+P43143); format: cell-based
# T11 construct: formed by splicing the N-terminal extracellular domain of the α6 subunit with the α3 subunit; fusion partner: remainder of the rat α3 subunit (Chrna3); expressed in transfected cells; host or cells: Xenopus laevis oocytes injected with cRNA
# human α6/α3β2β3 nAChR = details: cited from earlier work
# hα6/α3β4M160K = target: T12, hα6/α3β4M160K (Homo sapiens, UniProt P30926+Q15825, M186K); format: cell-based
# T12 construct: formed by splicing the N-terminal extracellular domain of the α6 subunit with the α3 subunit; human nAChR α3 subunit (CHRNA3); expressed in transfected cells; host or cells: Xenopus laevis oocytes injected with cRNA (plasmids from the University of Utah)
# hα6/α3β4L116Q = target: T13, hα6/α3β4L116Q (Homo sapiens, UniProt P30926+Q15825, L142Q); format: cell-based
# T13 construct: splicing the N-terminal extracellular domain of the α6 subunit with the α3 subunit; mutant made by PCR mutagenesis; host or cells: Xenopus laevis oocytes injected with cRNA
# hα6/α3β4L107V, V115I = target: T14, hα6/α3β4L107V, V115I (Homo sapiens, UniProt P30926+Q15825, L133V/V141I); assay: cell-based; format: cell-based
# T14 construct: formed by splicing the N-terminal extracellular domain of the α6 subunit with the α3 subunit; fusion partner: remainder of the human α3 subunit (CHRNA3); expressed in transfected cells; host or cells: Xenopus laevis oocytes injected with cRNA
# hα6/α3β4A37S = target: T15, hα6/α3β4A37S (Homo sapiens, UniProt P30926+Q15825, A63S); format: cell-based
# T15 construct: splicing the N-terminal extracellular domain of the α6 subunit with the α3 subunit; mutant made by PCR mutagenesis; host or cells: Xenopus laevis oocytes injected with cRNA
# h[α6I56V/α3]β4 = target: T16, h[α6I56V/α3]β4 (Homo sapiens, UniProt P30926+P32297+Q15825, I89V); format: cell-based
# T16 construct: formed by splicing the N-terminal extracellular domain of the α6 subunit with the α3 subunit; human nAChR α3 subunit (CHRNA3); expressed in transfected cells; host or cells: Xenopus laevis oocytes injected with cRNA (plasmids from the University of Utah)
# [6] = read-out: inhibition of the current response to 100 μM ACh
# T14 sequence (Q15825 26-239 limits assumed): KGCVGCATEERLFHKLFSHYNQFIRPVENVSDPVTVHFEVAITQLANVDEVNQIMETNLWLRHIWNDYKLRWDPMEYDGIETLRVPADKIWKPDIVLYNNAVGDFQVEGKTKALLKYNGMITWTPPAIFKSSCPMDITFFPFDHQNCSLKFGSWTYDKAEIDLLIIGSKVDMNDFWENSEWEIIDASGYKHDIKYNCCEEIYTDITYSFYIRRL
# T14 sequence (P30926 22-498 L133V/V141I): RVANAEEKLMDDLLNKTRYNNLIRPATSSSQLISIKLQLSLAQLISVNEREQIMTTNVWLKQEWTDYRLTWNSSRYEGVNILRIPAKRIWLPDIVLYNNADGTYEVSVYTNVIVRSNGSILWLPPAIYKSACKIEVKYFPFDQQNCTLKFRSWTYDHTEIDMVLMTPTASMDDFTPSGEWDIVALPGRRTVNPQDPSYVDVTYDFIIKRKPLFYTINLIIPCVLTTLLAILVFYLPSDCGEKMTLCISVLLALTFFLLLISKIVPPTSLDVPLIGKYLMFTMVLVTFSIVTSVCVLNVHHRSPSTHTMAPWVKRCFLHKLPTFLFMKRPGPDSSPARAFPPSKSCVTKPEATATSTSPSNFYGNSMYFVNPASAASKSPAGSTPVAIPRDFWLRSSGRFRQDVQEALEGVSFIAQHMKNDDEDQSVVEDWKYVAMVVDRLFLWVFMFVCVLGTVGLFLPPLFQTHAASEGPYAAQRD
# T7 sequence (Q15825 26-239 limits assumed): as the sequence (Q15825 26-239 limits assumed) above
# T7 sequence (P30926 22-498 L133V): as the sequence (P30926 22-498 L133V/V141I) above, with I120V counted along it
# T9 sequence (Q15825+P32297 fused with the stated changes): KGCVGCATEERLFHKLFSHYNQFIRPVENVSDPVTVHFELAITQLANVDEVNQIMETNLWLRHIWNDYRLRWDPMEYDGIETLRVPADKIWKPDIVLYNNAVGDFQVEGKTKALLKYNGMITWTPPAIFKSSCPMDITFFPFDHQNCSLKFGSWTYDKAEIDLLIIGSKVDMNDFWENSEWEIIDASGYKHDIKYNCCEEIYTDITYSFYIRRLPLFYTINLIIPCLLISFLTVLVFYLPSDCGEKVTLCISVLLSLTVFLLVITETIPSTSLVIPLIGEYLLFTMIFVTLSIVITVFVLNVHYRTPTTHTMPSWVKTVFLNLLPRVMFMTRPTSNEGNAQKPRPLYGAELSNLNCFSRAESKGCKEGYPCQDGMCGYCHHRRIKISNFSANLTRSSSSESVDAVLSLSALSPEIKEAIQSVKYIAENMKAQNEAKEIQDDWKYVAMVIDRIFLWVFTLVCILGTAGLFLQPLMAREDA
# T9 sequence (P30926 22-498 L133V/V141I): as the sequence (P30926 22-498 L133V/V141I) above
# T6 sequence (Q15825+P32297 fused with the stated changes): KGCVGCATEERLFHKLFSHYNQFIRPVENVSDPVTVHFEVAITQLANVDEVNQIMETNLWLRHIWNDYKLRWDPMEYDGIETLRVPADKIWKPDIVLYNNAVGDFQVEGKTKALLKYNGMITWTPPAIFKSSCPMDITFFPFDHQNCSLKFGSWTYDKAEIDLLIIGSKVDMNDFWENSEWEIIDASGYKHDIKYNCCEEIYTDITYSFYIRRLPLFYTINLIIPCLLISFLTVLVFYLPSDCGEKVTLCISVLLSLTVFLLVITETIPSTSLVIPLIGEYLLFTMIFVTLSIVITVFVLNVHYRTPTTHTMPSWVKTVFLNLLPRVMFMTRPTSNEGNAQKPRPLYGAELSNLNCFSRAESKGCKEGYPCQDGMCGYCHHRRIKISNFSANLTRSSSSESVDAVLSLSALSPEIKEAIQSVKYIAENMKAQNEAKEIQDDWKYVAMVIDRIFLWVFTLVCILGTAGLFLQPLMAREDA
# T6 sequence (P30926 22-498): as the sequence (P30926 22-498 L133V/V141I) above, with V112L, I120V counted along it
# T2 sequence (Q15825+P32297 fused with the stated changes): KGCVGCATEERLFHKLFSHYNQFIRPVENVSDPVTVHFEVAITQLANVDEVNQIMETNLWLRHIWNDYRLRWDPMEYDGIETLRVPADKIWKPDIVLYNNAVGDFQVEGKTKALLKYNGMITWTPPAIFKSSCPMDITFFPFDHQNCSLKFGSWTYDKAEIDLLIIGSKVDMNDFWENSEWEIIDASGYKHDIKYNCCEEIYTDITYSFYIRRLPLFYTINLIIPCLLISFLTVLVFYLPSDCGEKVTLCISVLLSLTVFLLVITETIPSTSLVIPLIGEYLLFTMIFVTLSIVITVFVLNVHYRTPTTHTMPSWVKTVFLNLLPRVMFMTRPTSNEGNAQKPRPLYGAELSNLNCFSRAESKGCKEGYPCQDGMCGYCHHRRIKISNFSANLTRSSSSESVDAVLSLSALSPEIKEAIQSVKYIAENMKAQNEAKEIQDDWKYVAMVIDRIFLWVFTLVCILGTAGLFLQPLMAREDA
# T2 sequence (P30926 22-498): as the sequence (P30926 22-498 L133V/V141I) above, with V112L, I120V counted along it
# T5 sequence (Q15825 26-239 limits assumed): as the sequence (Q15825 26-239 limits assumed) above
# T5 sequence (P30926 22-498 I110V): as the sequence (P30926 22-498 L133V/V141I) above, with I89V, V112L, I120V counted along it
compound,measurement,setting,value
"CC(C)C[C@@H]1NC(=O)[C@H](CC(=O)O)NC(=O)[C@@H]2CCCN2C(=O)[C@H](Cc2c[nH]cn2)NC(=O)[C@H](CCCCN)NC(=O)[C@H](CC(N)=O)NC(=O)[C@H](CCCNC(=N)N)NC(=O)[C@@H]2CSSC[C@H](NC(=O)CN)C(=O)N[C@@H](CSSC[C@@H](C(N)=O)NC1=O)C(=O)N[C@@H](CO)C(=O)N[C@@H](CC(=O)O)C(=O)N1CCC[C@H]1C(=O)N1CCC[C@H]1C(=O)N2 [TxIB] (H-GCCSDPPCRNKHPDLC-NH2; disulfide 2-8, 3-16)",Ratio (change in TxIB IC50 relative to hα6/α3β4),h[α6Q14R/α3]β4 [1],1
same,Hill Slope,h[α6Q14R/α3]β4 [2],0.9 (0.7–1.2)
same,Hill Slope,h[α6K61R/α3]β4,0.8 (0.7–0.9)
same,Ratio (change in TxIB IC50 relative to hα6/α3β4),h[α6K61R/α3]β4,3.4
same,activity at 10 µM,h[α6K61R/α3]β4; [6],22.1 ± 4.7%
same,Hill Slope,h[α6R3Q/α3]β4,0.9 (0.8–1.1)
same,Ratio (change in TxIB IC50 relative to hα6/α3β4),h[α6R3Q/α3]β4,0.9
same,Hill Slope,h[α6M112V/α3]β4,0.8 (0.7–0.9)
same,Ratio (change in TxIB IC50 relative to hα6/α3β4),h[α6M112V/α3]β4,0.6
same,Hill Slope,hα6/α3β4I84V,0.8 (0.8–0.9)
same,Ratio (change in TxIB IC50 relative to hα6/α3β4),hα6/α3β4I84V,1.4
same,Hill Slope,hα6/α3β4,0.8 (0.8–0.9)
same,Ratio (change in TxIB IC50 relative to hα6/α3β4),hα6/α3β4,1
same,blocking effect,hα6/α3β4,completely blocked
same,variation of activity between human and murine nAChRs,hα6/α3β4,more than 30 fold
same,activity at 10 µM,hα6/α3β4; [6],11 ± 5.9%
same,Hill Slope,hα6/α3β4L107V,0.8 (0.7–0.9)
same,Ratio (change in TxIB IC50 relative to hα6/α3β4),hα6/α3β4L107V,3.3
same,activity at 10 µM,hα6/α3β4L107V; [6],21.7 ± 4.29%
same,Ratio (change in TxIB IC50 relative to hα6/α3β4),h[α6S10A/α3]β4 [3],1.2
same,Hill Slope,h[α6S10A/α3]β4 [4],0.8 (0.7–0.9)
same,Hill Slope,[5],0.8 (0.6–0.9)
same,Ratio (change in TxIB IC50 relative to hα6/α3β4),[5],42
same,time to full restoration of currents blocked by TxIB,[5],≤ 1 min
same,activity at 10 µM,[5]; [6],60.2 ± 8.66%
same,Hill Slope,h[α6K7T/α3]β4,0.8 (0.6–0.9)
same,Ratio (change in TxIB IC50 relative to hα6/α3β4),h[α6K7T/α3]β4,1.4
same,blocking effect,rα6/α3β4,almost no blocking effect
same,blocking effect,human α6/α3β2β3 nAChR,significant blocking effect
same,Hill Slope,hα6/α3β4M160K,0.9 (0.7–1.1)
same,Ratio (change in TxIB IC50 relative to hα6/α3β4),hα6/α3β4M160K,1.5
same,Hill Slope,hα6/α3β4L116Q,0.8 (0.7–0.9)
same,Ratio (change in TxIB IC50 relative to hα6/α3β4),hα6/α3β4L116Q,1.7
same,Hill Slope,"hα6/α3β4L107V, V115I",0.8 (0.8–0.9)
same,Ratio (change in TxIB IC50 relative to hα6/α3β4),"hα6/α3β4L107V, V115I",4.9
same,time to full restoration of currents blocked by TxIB,"hα6/α3β4L107V, V115I",≤ 1 min
same,activity at 10 µM,"hα6/α3β4L107V, V115I; [6]",25.1 ± 11.2%
same,Hill Slope,hα6/α3β4A37S,0.9 (0.8–1.0)
same,Ratio (change in TxIB IC50 relative to hα6/α3β4),hα6/α3β4A37S,1.1
same,Hill Slope,h[α6I56V/α3]β4,1.0 (0.9–1.2)
same,Ratio (change in TxIB IC50 relative to hα6/α3β4),h[α6I56V/α3]β4,0.9
